Experimental data taken from US12281149B2, “Modulators of G-protein coupled receptors” (priority 2021, dated 2025).
Read-outs that look alike come from different tables or passages of the source. *1 amine or outer side, *2 acyl side, *3 side chain or, on linkers, in order; H or OH if unused. Where a SMILES comes first, the peptide text is derived from it. Side-chain parts run from the residue outwards. [ ]: non-standard residue; d: D form. The star is where a group is joined. C20 diacid = O=C(O)CCCCCCCCCCCCCCCCCCC(=O)*; NH(4-OCF3-phenyl) = FC(F)(F)Oc1ccc(N*)cc1; γGlu = O=C(O)[C@H](CCC(=O)[*:2])N[*:1]; NH(4-Cl-phenyl) = Clc1ccc(N*)cc1; NH(4-Me-phenyl) = Cc1ccc(N*)cc1; NH(4-F-phenyl) = Fc1ccc(N*)cc1; X29 = Fc1ccc(N*)c(F)c1; AEEA = NCCOCCOCC(=O)O; Aib = CC(C)(N)C(=O)O; CO = O=C([*:1])[*:2]; GABA = NCCCC(=O)O

Columns and labels:
Format in all cases: cell-based
[1] = target: T1, GLP-1 receptor (Homo sapiens, UniProt P43220); assay: HitHunter cAMP assay, GLP-1 receptor; conditions: for Emax: read-out: Emax GLP-1R
[2] = target: T2, GIP receptor (Homo sapiens, UniProt P48546); assay: HitHunter cAMP assay, GIP receptor; conditions: for Emax: read-out: Emax GIP-1R
T2 sequence (P48546 22-466): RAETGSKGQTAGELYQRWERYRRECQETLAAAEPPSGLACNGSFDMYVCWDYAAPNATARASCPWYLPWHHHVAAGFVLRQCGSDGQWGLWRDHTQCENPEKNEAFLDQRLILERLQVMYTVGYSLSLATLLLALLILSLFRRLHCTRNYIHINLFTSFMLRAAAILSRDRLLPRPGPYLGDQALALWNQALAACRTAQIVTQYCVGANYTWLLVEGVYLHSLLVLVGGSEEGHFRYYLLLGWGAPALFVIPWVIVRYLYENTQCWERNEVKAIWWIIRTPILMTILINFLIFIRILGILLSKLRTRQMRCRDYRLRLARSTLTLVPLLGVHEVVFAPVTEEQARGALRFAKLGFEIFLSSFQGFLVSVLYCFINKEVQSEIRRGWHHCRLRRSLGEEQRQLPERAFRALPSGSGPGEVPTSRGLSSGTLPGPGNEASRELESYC

[3] = target: T2, GIP receptor; assay: PathHunter β-arrestin assay, GIP receptor; set-up: host or cells: PathHunter CHO-K1 GIPR β-Arrestin Cell Line
[4] = target: T1, GLP-1 receptor; assay: PathHunter β-arrestin assay, GLP-1 receptor; set-up: host or cells: PathHunter CHO-K1 GLP1R β-Arrestin Cell Line
Experimental: β-arrestin-2 recruitment for GLP-1 receptor or GIP receptor was measured using the DiscoverX PathHunter Detection Kit and PathHunter® CHO-K1 GLPIR β-Arrestin Cell Line or PathHunter® CHO-K1 GIPR β-Arrestin Cell Line, respectively). Briefly, cells were grown in Ham's F12 Nutrient Mix with 10% FBS and lifted with Cell dissociation buffer, Enzyme free, PBS based (ThermoFisher). Harvested cells were pelleted and resuspended in Assay Complete Cell Plating Reagent 2 and 5000 cells per well were plated in tissue culture treated 384-well small volume white assay plates. Plates were then incubated at 37° C. and 5% CO2 overnight. The media was then replaced with fresh Assay Complete Cell Plating Reagent 2. Cells were then treated with 10 nl compound in DMSO using an ECHO 550 acoustic dispenser (Labcyte) in a 20-point dose response format in duplicate for 90 min at 37° C. The assay was then completed according to the manufacturer's instructions. Luminescence was measured using a Perkin Elmer Envision plate reader. Raw data was normalized to the maximum signal from GLP-1 or GIP (high) and DMSO (low). Dose response curves were analyzed using GraphPad Prism 9.0.

[5] = CHO cells stably expressing human GLP-1 receptor, cAMP accumulation, 30 min, read-out: EC50 GLP-1R
[6] = CHO cells, cAMP, normalized to maximum signal from GLP-1 (high) and DMSO (low)
[7] = CHO cells stably expressing GIP receptor, cAMP accumulation, 30 min, read-out: EC50 GIP-1R
[8] = CHO cells, cAMP, normalized to maximum signal from GIP (high) and DMSO (low)
[9] = β-arrestin-2 recruitment, PathHunter CHO-K1 GIPR β-Arrestin Cell Line, 90 min at 37° C., normalized to GIP, read-out: GIPR β Arrestin EC50
[10] = β-arrestin-2 recruitment, PathHunter CHO-K1 GLP1R β-Arrestin Cell Line, 90 min at 37° C., normalized to GLP-1, read-out: GLP-1R β Arrestin EC50

T1 sequence (P43220 24-463): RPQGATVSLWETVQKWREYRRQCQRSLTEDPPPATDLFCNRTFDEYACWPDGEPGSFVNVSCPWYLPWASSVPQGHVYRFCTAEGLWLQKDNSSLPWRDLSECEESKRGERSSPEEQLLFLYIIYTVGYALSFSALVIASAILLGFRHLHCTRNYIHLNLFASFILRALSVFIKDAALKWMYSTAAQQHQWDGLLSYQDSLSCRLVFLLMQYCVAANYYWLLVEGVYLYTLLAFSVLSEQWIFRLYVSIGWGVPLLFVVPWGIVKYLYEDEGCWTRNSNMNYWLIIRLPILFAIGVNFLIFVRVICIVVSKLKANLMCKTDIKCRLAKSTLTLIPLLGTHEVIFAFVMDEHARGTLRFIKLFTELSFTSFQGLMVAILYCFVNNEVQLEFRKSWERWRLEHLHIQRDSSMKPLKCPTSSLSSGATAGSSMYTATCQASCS

Row | Structure (SMILES) | EC50 [1, 5] | Emax [1, 6] | EC50 [2, 7] | Emax [2, 8] | EC50 [3, 9] | EC50 [4, 10] | EC50 [1] | Emax ([1]; CHO) | EC50 [2] | Emax ([2]; CHO) | EC50 [3] | EC50 [4]
1 | CC[C@H](C)[C@H](NC(=O)[C@H](CC(C)C)NC(=O)[C@H](Cc1c[nH]c2ccccc12)NC(=O)[C@H](CCC(N)=O)NC(=O)[C@@H](NC(=O)[C@H](Cc1ccccc1)NC(=O)[C@H](C)NC(=O)[C@H](CCCCNC(=O)COCCOCCNC(=O)COCCOCCNC(=O)CC[C@H](NC(=O)CCCCCCCCCCCCCCCCCCC(=O)O)C(=O)O)NC(=O)[C@H](CCC(N)=O)NC(=O)[C@H](C)NC(=O)[C@@H](NC(=O)[C@H](CCCCN)NC(=O)[C@H](CC(=O)O)NC(=O)[C@H](CC(C)C)NC(=O)C(C)(C)NC(=O)[C@@H](NC(=O)[C@H](CO)NC(=O)[C@H](Cc1ccc(O)cc1)NC(=O)[C@H](CC(=O)O)NC(=O)[C@H](CO)NC(=O)[C@@H](NC(=O)[C@H](Cc1ccccc1)NC(=O)[C@@H](NC(=O)CNC(=O)[C@H](CCC(=O)O)NC(=O)CCCNC(=O)CNC(=O)Nc1ccc(F)cc1F)[C@@H](C)O)[C@@H](C)O)[C@@H](C)CC)[C@@H](C)CC)C(C)C)C(=O)N[C@@H](C)C(=O)NCC(=O)NCC(=O)N1CCC[C@H]1C(=O)N[C@@H](CO)C(=O)N[C@@H](CO)C(=O)NCC(=O)N[C@@H](C)C(=O)N1CCC[C@H]1C(=O)N1CCC[C@H]1C(=O)N1CCC[C@H]1C(=O)N[C@@H](CO)C(N)=O [Compound 267] ({X29-CO}-G[GABA]EGTFTSDYSI[Aib]LDKIAQK([AEEA-AEEA-γGlu-C20 diacid])AFVQWLIAGGPSSGAPPPS-NH2) | 0.001 to 0.01 µM | 105% | 0.001 to 0.01 µM | 106% | > 1 µM | > 1 µM | – | – | – | – | – | –
2 | CC[C@H](C)[C@H](NC(=O)[C@H](CC(C)C)NC(=O)[C@H](Cc1c[nH]c2ccccc12)NC(=O)[C@H](CCC(N)=O)NC(=O)[C@@H](NC(=O)[C@H](Cc1ccccc1)NC(=O)[C@H](C)NC(=O)[C@H](CCCCNC(=O)COCCOCCNC(=O)COCCOCCNC(=O)CC[C@H](NC(=O)CCCCCCCCCCCCCCCCCCC(=O)O)C(=O)O)NC(=O)[C@H](CCC(N)=O)NC(=O)[C@H](C)NC(=O)[C@@H](NC(=O)[C@H](CCCCN)NC(=O)[C@H](CC(=O)O)NC(=O)[C@H](CC(C)C)NC(=O)C(C)(C)NC(=O)[C@@H](NC(=O)[C@H](CO)NC(=O)[C@H](Cc1ccc(O)cc1)NC(=O)[C@H](CC(=O)O)NC(=O)[C@H](CO)NC(=O)[C@@H](NC(=O)[C@H](Cc1ccccc1)NC(=O)[C@@H](NC(=O)CNC(=O)[C@H](CCC(=O)O)NC(=O)CCCNC(=O)CNC(=O)Nc1ccc(F)cc1)[C@@H](C)O)[C@@H](C)O)[C@@H](C)CC)[C@@H](C)CC)C(C)C)C(=O)N[C@@H](C)C(=O)NCC(=O)NCC(=O)N1CCC[C@H]1C(=O)N[C@@H](CO)C(=O)N[C@@H](CO)C(=O)NCC(=O)N[C@@H](C)C(=O)N1CCC[C@H]1C(=O)N1CCC[C@H]1C(=O)N1CCC[C@H]1C(=O)N[C@@H](CO)C(N)=O [Compound 268] ({NH(4-F-phenyl)-CO}-G[GABA]EGTFTSDYSI[Aib]LDKIAQK([AEEA-AEEA-γGlu-C20 diacid])AFVQWLIAGGPSSGAPPPS-NH2) | 0.001 to 0.01 µM | 95% | 0.001 to 0.01 µM | 103% | > 1 µM | > 1 µM | – | – | – | – | – | –
3 | CC[C@H](C)[C@H](NC(=O)[C@H](CC(C)C)NC(=O)[C@H](Cc1c[nH]c2ccccc12)NC(=O)[C@H](CCC(N)=O)NC(=O)[C@@H](NC(=O)[C@H](Cc1ccccc1)NC(=O)[C@H](C)NC(=O)[C@H](CCCCNC(=O)COCCOCCNC(=O)COCCOCCNC(=O)CC[C@H](NC(=O)CCCCCCCCCCCCCCCCCCC(=O)O)C(=O)O)NC(=O)[C@H](CCC(N)=O)NC(=O)[C@H](C)NC(=O)[C@@H](NC(=O)[C@H](CCCCN)NC(=O)[C@H](CC(=O)O)NC(=O)[C@H](CC(C)C)NC(=O)C(C)(C)NC(=O)[C@@H](NC(=O)[C@H](CO)NC(=O)[C@H](Cc1ccc(O)cc1)NC(=O)[C@H](CC(=O)O)NC(=O)[C@H](CO)NC(=O)[C@@H](NC(=O)[C@H](Cc1ccccc1)NC(=O)[C@@H](NC(=O)CNC(=O)[C@H](CCC(=O)O)NC(=O)CCCNC(=O)CNC(=O)Nc1ccc(OC(F)(F)F)cc1)[C@@H](C)O)[C@@H](C)O)[C@@H](C)CC)[C@@H](C)CC)C(C)C)C(=O)N[C@@H](C)C(=O)NCC(=O)NCC(=O)N1CCC[C@H]1C(=O)N[C@@H](CO)C(=O)N[C@@H](CO)C(=O)NCC(=O)N[C@@H](C)C(=O)N1CCC[C@H]1C(=O)N1CCC[C@H]1C(=O)N1CCC[C@H]1C(=O)N[C@@H](CO)C(N)=O [Compound 269] ({NH(4-OCF3-phenyl)-CO}-G[GABA]EGTFTSDYSI[Aib]LDKIAQK([AEEA-AEEA-γGlu-C20 diacid])AFVQWLIAGGPSSGAPPPS-NH2) | 0.001 to 0.01 µM | 96% | 0.001 to 0.01 µM | 103% | < 1 µM | > 1 µM | – | – | – | – | – | –
4 | CC[C@H](C)[C@H](NC(=O)[C@H](CC(C)C)NC(=O)[C@H](Cc1c[nH]c2ccccc12)NC(=O)[C@H](CCC(N)=O)NC(=O)[C@@H](NC(=O)[C@H](Cc1ccccc1)NC(=O)[C@H](C)NC(=O)[C@H](CCCCNC(=O)COCCOCCNC(=O)COCCOCCNC(=O)CC[C@H](NC(=O)CCCCCCCCCCCCCCCCCCC(=O)O)C(=O)O)NC(=O)[C@H](CCC(N)=O)NC(=O)[C@H](C)NC(=O)[C@@H](NC(=O)[C@H](CCCCN)NC(=O)[C@H](CC(=O)O)NC(=O)[C@H](CC(C)C)NC(=O)C(C)(C)NC(=O)[C@@H](NC(=O)[C@H](CO)NC(=O)[C@H](Cc1ccc(O)cc1)NC(=O)[C@H](CC(=O)O)NC(=O)[C@H](CO)NC(=O)[C@@H](NC(=O)[C@H](Cc1ccccc1)NC(=O)[C@@H](NC(=O)CNC(=O)[C@H](CCC(=O)O)NC(=O)CCCNC(=O)CNC(=O)Nc1ccc(Cl)cc1)[C@@H](C)O)[C@@H](C)O)[C@@H](C)CC)[C@@H](C)CC)C(C)C)C(=O)N[C@@H](C)C(=O)NCC(=O)NCC(=O)N1CCC[C@H]1C(=O)N[C@@H](CO)C(=O)N[C@@H](CO)C(=O)NCC(=O)N[C@@H](C)C(=O)N1CCC[C@H]1C(=O)N1CCC[C@H]1C(=O)N1CCC[C@H]1C(=O)N[C@@H](CO)C(N)=O [Compound 270] ({NH(4-Cl-phenyl)-CO}-G[GABA]EGTFTSDYSI[Aib]LDKIAQK([AEEA-AEEA-γGlu-C20 diacid])AFVQWLIAGGPSSGAPPPS-NH2) | – | – | – | – | – | – | 0.01 to 0.1 µM | 91% | 0.001 to 0.01 µM | 104% | < 1 µM | > 1 µM
5 | CC[C@H](C)[C@H](NC(=O)[C@H](CC(C)C)NC(=O)[C@H](Cc1c[nH]c2ccccc12)NC(=O)[C@H](CCC(N)=O)NC(=O)[C@@H](NC(=O)[C@H](Cc1ccccc1)NC(=O)[C@H](C)NC(=O)[C@H](CCCCNC(=O)COCCOCCNC(=O)COCCOCCNC(=O)CC[C@H](NC(=O)CCCCCCCCCCCCCCCCCCC(=O)O)C(=O)O)NC(=O)[C@H](CCC(N)=O)NC(=O)[C@H](C)NC(=O)[C@@H](NC(=O)[C@H](CCCCN)NC(=O)[C@H](CC(=O)O)NC(=O)[C@H](CC(C)C)NC(=O)C(C)(C)NC(=O)[C@@H](NC(=O)[C@H](CO)NC(=O)[C@H](Cc1ccc(O)cc1)NC(=O)[C@H](CC(=O)O)NC(=O)[C@H](CO)NC(=O)[C@@H](NC(=O)[C@H](Cc1ccccc1)NC(=O)[C@@H](NC(=O)CNC(=O)[C@H](CCC(=O)O)NC(=O)CCCNC(=O)CNC(=O)Nc1ccc(C)cc1)[C@@H](C)O)[C@@H](C)O)[C@@H](C)CC)[C@@H](C)CC)C(C)C)C(=O)N[C@@H](C)C(=O)NCC(=O)NCC(=O)N1CCC[C@H]1C(=O)N[C@@H](CO)C(=O)N[C@@H](CO)C(=O)NCC(=O)N[C@@H](C)C(=O)N1CCC[C@H]1C(=O)N1CCC[C@H]1C(=O)N1CCC[C@H]1C(=O)N[C@@H](CO)C(N)=O [Compound 271] ({NH(4-Me-phenyl)-CO}-G[GABA]EGTFTSDYSI[Aib]LDKIAQK([AEEA-AEEA-γGlu-C20 diacid])AFVQWLIAGGPSSGAPPPS-NH2) | – | – | – | – | – | – | 0.001 to 0.01 µM | 94% | 0.001 to 0.01 µM | 105% | < 1 µM | > 1 µM
